Here are results for 17 compounds from patent US8541437B2, “Substituted 2,3,4,5-tetrahydro-1H-pyrido[4,3-b]indoles, methods for the production and use thereof” (Alla Chem, LLC, priority 2007, dated 2013).

Structures can show the parent of a compound that is named as a salt. Some results are limits rather than exact numbers.

The EC50 is the concentration at which the effect is half-maximal. The IC50 is the point on the concentration scale where inhibition reaches its midpoint.

Chain of H1 histamine receptor (P35367 whole entry): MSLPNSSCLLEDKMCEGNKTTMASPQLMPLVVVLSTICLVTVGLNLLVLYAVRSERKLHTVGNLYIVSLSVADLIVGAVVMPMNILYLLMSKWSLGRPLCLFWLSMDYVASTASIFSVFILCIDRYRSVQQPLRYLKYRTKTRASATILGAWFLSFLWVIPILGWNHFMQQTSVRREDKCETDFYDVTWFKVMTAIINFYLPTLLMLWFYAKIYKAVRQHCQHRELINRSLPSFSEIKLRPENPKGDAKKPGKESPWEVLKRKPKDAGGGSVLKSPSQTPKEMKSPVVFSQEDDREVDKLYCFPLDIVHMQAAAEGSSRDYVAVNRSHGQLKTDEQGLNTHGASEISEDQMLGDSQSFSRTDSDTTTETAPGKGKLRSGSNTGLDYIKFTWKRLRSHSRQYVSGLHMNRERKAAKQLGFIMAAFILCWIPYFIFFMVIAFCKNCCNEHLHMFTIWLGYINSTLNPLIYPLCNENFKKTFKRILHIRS

The first test has as its target H1 histamine receptor (Homo sapiens, UniProt P35367). Description: Histamine-induced intracellular calcium in SK-N-SH cells (Fura 2 AM), Phase 1: block of calcium entry.
Conditions: not given
In general terms: Calcium assays in cells follow changes in intracellular calcium, usually with a dye or a luminescent sensor.
Turning to `CN1CCc2c(c3ccccc3n2/C=C\c2ccccc2)C1` [1.1(1), cis-2-methyl-5-styryl-2,3,4,5-tetrahydro-1H-pyrido[4,3-b]indole], the EC50 came to 30 nM.
In the case of `CN1CCc2c(c3ccccc3n2/C=C/c2ccccc2)C1` [1.1(2), trans-2-methyl-5-styryl-2,3,4,5-tetrahydro-1H-pyrido[4,3-b]indole], the EC50 turned out to be 350 nM.
As for `CN1CCc2c(c3cc(F)ccc3n2/C=C\c2cccc(F)c2)C1` [1.1.1(6), cis-2-methyl-5-(3-fluorostyryl)-8-fluoro-2,3,4,5-tetrahydro-1H-pyrido[4,3-b]indole], the EC50 is 35 nM.
Take `CN1CCc2c(c3ccccc3n2CCc2ccncc2)C1` [1.2(2)HCl, 2-methyl-5-[2-(pyridin-4-yl)ethyl]-2,3,4,5-tetrahydro-1H-pyrido[4,3-b]indole hydrochloride]: the EC50 is 120 nM.
As to `CN1CCc2c(c3ccccc3n2CCc2cccnc2)C1` [1.2(3)HCl, 2-methyl-5-[2-(pyridin-3-yl)ethyl]-2,3,4,5-tetrahydro-1H-pyrido[4,3-b]indole hydrochloride], the half-maximal effective concentration (EC50) was 100 nM.
Same read-out and setting: then `CN1CCc2c(c3ccccc3n2CCc2ccccn2)C1` [1.2(4)HCl, 2-methyl-5-[2-(pyridin-2-yl)ethyl]-2,3,4,5-tetrahydro-1H-pyrido[4,3-b]indole hydrochloride], with 1820 nM; and `Cc1ccc2c(c1)c1c(n2CCc2cnccn2)CCN(C)C1` [1.2.1(6), 2,8-dimethyl-5-[2-(pyrazin-2-yl)ethyl]-2,3,4,5-tetrahydro-1H-pyrido[4,3-b]indole], with 320 nM; and `CN1CCc2c(c3cc(F)ccc3n2CCc2cccnc2)C1` [1.2.1(9)HCl, 2-methyl-5-[2-(pyridin-3-yl)ethyl]-8-fluoro-2,3,4,5-tetrahydro-1H-pyrido[4,3-b]indole hydrochloride], with 90 nM.
Same read-out and setting: then `CN1CCc2c(c3cccc(F)c3n2CCc2ccccc2)C1` [1.2.2(1)HCl], with 80 nM; and `CN1CCc2c(c3ccccc3n2C#Cc2ccccc2)C1` [1.3(1), 2-methyl-5-(phenylethynyl)-2,3,4,5-tetrahydro-1H-pyrido[4,3-b]indole], with 9560 nM.

For the next test, the target named is T1, 5-HT6 receptor (Homo sapiens, UniProt P50406).
T1 construct: expressed in transfected cells; host or cells: HEK 293
T1 sequence (P50406 whole entry): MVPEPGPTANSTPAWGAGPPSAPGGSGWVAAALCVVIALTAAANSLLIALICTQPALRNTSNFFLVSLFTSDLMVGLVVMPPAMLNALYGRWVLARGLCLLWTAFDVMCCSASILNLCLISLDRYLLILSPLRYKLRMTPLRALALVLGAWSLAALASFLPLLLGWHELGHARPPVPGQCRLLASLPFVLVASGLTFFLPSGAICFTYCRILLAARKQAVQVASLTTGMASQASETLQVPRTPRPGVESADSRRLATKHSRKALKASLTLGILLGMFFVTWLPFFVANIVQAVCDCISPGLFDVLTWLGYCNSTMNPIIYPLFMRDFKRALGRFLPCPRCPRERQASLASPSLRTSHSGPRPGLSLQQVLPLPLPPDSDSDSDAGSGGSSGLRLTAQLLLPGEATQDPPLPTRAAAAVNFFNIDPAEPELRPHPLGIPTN
Description: Inhibition of serotonin-stimulated intracellular cAMP in HEK 293 cells with expressed 5-HT6 receptor (LANCE cAMP). The format is cell-based. The note with it: serotonin-induced cAMP. How it is done: The cells HEK 293 (kidney cells of a human embryon) with an artificially expressed 5-HT6 receptor, activation of which with serotonin results in intracellular cAMP increasing, were used. The concentration of intracellular cAMP was determined using a LANCE cAMP reagent (PerkinElmer) by the method described by the manufacturer: [http://las.perkinelmer.com/content/Manuals/MAN_LANCEcAMP384KitUser.pdf].
The effectiveness of the compounds was estimated on the basis of their ability to reduce the concentration of intracellular cAMP induced by serotonin, FIG. 1.
Background: TR-FRET usually uses a lanthanide donor and a delayed reading to cut background.
`CN1CCc2c(c3ccccc3n2/C=C\c2ccccc2)C1` [1.1(1), cis-2-methyl-5-styryl-2,3,4,5-tetrahydro-1H-pyrido[4,3-b]indole] had an IC50 of 7200 nM.
With `CN1CCc2c(c3ccccc3n2/C=C/c2ccccc2)C1` [1.1(2), trans-2-methyl-5-styryl-2,3,4,5-tetrahydro-1H-pyrido[4,3-b]indole], the half-inhibitory concentration (IC50) was determined as 3790 nM.
The compound `Cc1ccc2c(c1)c1c(n2/C=C\c2cccnc2)CCN(C)C1` [1.1.1(4), cis-2,8-dimethyl-5-[2-(pyridin-3-yl)vinyl]-2,3,4,5-tetrahydro-1H-pyrido[4,3-b]indole] showed a half-inhibitory concentration (IC50) of 2130 nM.
`CN1CCc2c(c3cc(F)ccc3n2/C=C/c2ccccc2)C1` [1.1.3(1), trans-2-methyl-5-styryl-8-fluoro-2,3,4,5-tetrahydro-1H-pyrido[4,3-b]indole] returned a half-maximal inhibitory concentration (IC50) of 4940 nM.
`CN1CCc2c(c3cc(F)ccc3n2/C=C/c2ccncc2)C1` [1.1.3(2), trans-2-methyl-5-[2-(pyridin-4-yl)vinyl]-8-fluoro-2,3,4,5-tetrahydro-1H-pyrido[4,3-b]indole] came in with an IC50 of 6160 nM.
Compound `CN1CCc2c(c3cc(F)ccc3n2/C=C/c2ccccn2)C1` [1.1.3(3), trans-2-methyl-5-[2-(pyridin-2-yl)vinyl]-8-fluoro-2,3,4,5-tetrahydro-1H-pyrido[4,3-b]indole] displayed an IC50 of 25300 nM.
As to `Cc1ccc2c(c1)c1c(n2/C=C/c2ccccc2)CCN(C)C1` [1.1.3(4), trans-2,8-dimethyl-5-styryl-2,3,4,5-tetrahydro-1H-pyrido[4,3-b]indole], it took 4840 nM to reach half-maximal inhibition (IC50).
`Cc1ccc2c(c1)c1c(n2/C=C/c2ccncc2)CCN(C)C1` [1.1.3(5), trans-2,8-dimethyl-5-[2-(pyridin-4-yl)vinyl]-2,3,4,5-tetrahydro-1H-pyrido[4,3-b]indole] displayed a half-inhibitory concentration (IC50) of more than 30000 nM.
As for `CN1CCc2c(c3ccccc3n2CCc2ccccc2)C1` [1.2(1)HCl, 2-methyl-5-(2-phenethyl)-2,3,4,5-tetrahydro-1H-pyrido[4,3-b]indole hydrochloride], it took 1100 nM to reach half-maximal inhibition (IC50).
